Target: T1, Purified ERAP1 (37-941)-10His (ERAP1) (Homo sapiens, UniProt Q9NZ08)
T1 construct: Purified ERAP1 (37-941)-10His (ERAP1)
Experiment: ERAP1 mediated hydrolysis of an amide substrate (10-mer inhibition assay), biochemical system
Conditions: 10-mer substrate, 23° C., 1 h, excitation 279 nm / emission 355 nm; read-out: IC50 vs Decapeptide WRVYEKC(Dnp)ALK-acid (where Dnp is Dinitrophenyl maleimide) (10-mer)
Method: However, as ERAP1 hydrolyses the N-terminal amide bond and tryptophan is released this internal quenching is lost and the reaction is monitored by the increase in tryptophan fluorescence over the course of the assay. For the purposes of this application this assay is referred to as the “10mer inhibition assay” and compound potencies are calculated and expressed as IC50 as would be familiar to a person skilled in the art.
Biological Assay 1: ERAP1 Mediated Hydrolysis of an Amide Substrate Measured in a Biochemical System
Decapeptide WRVYEKC(Dnp)ALK-acid (where Dnp is Dinitrophenyl maleimide) (10-mer) L-Leucine 7-amido-4-methylcoumarin (L-AMC)
12.5 μL ERAP1 enzyme in 1×AB was combined with 250 nL test compound in DMSO. […] For detection, plates were read at excitation 365 nm and emission 442 nm (L-AMC) or excitation 279 nm and emission 355 nm (10-mer).

T1 sequence (Q9NZ08 37-941): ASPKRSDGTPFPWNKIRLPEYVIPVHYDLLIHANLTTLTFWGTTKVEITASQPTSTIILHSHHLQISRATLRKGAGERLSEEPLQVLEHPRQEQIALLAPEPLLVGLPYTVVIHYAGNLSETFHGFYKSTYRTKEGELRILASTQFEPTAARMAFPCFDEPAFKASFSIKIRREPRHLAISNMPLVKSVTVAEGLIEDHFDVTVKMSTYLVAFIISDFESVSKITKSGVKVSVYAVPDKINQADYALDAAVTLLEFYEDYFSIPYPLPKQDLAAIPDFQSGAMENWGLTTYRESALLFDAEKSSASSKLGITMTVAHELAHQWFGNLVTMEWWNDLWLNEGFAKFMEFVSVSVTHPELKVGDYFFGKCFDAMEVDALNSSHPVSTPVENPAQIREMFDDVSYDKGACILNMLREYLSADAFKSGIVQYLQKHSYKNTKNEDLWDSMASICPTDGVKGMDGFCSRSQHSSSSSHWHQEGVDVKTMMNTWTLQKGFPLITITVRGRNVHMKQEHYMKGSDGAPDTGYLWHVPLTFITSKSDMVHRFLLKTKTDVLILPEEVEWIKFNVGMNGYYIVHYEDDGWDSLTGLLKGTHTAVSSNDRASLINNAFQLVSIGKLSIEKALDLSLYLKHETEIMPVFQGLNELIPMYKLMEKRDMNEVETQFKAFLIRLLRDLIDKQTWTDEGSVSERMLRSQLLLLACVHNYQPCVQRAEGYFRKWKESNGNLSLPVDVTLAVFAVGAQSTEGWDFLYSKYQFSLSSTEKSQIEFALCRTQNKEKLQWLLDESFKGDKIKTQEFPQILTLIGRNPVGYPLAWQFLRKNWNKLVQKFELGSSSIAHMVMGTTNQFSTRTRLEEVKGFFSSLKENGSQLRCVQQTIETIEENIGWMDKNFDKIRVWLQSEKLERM

IC50 [µM] | SMILES
< 0.5 | COc1ccc(C(=O)O)cc1S(=O)(=O)Nc1cc(-n2cnnn2)ccc1N1CCC[C@@H](F)C1 [Example 265, I-3-(N-(2-(3-fluoropiperidin-1-yl)-5-(tetrazol-1-yl)phenyl)sulfamoyl)-4-methoxybenzoic acid]
< 0.5 | COc1ccc(C(=O)O)cc1S(=O)(=O)Nc1cc(C(F)(F)F)ccc1N1CCCCC1 [Example 54, 4-methoxy-3-(N-(2-(piperidin-1-yl)-5-(trifluoromethyl)phenyl)sulfamoyl)benzoic acid]
< 0.5 | CCc1ccc(C(=O)O)cc1S(=O)(=O)Nc1cc(C(F)(F)F)ccc1N1CCC(C#N)CC1 [Example 238, 3-(N-(2-(4-cyanopiperidin-1-yl)-5-(trifluoromethyl)phenyl)sulfamoyl)-4-ethylbenzoic acid]
< 0.5 | CCc1ccc(C(=O)O)cc1S(=O)(=O)Nc1cc(-c2cnn(C)c2)ccc1N1CCCCC1 [Example 277, 4-ethyl-3-(N-(5-(1-methylpyrazol-4-yl)-2-(piperidin-1-yl)phenyl)sulfamoyl)benzoic acid]
< 0.5 | CCc1ccc(C(=O)O)cc1S(=O)(=O)Nc1cc(Cl)ccc1N1CCC(F)(F)CC1 [Example 217, 3-(N-(5-chloro-2-(4,4-difluoropiperidin-1-yl)phenyl)sulfamoyl)-4-ethylbenzoic acid]
< 0.5 | CCOc1ccc(C(=O)O)cc1S(=O)(=O)Nc1cc(C(F)(F)F)ccc1N1CCCCC1 [Example 201, 4-ethoxy-3-(N-(2-(piperidin-1-yl)-5-(trifluoromethyl)phenyl)sulfamoyl)benzoic acid]
< 0.5 | COc1ccc(C(=O)O)cc1S(=O)(=O)Nc1cc(Cl)ccc1N1CCC(F)(F)CC1 [Example 218, 3-(N-(5-chloro-2-(4,4-difluoropiperidin-1-yl)phenyl)sulfamoyl)-4-methoxybenzoic acid]
< 0.5 | COc1ccc(C(=O)O)cc1S(=O)(=O)Nc1cc(C(F)(F)F)ccc1N1C2CCCC1CC2 [Example 10, 3-(N-(2-(8-azabicyclo[3.2.1]octan-8-yl)-5-(trifluoromethyl)phenyl)sulfamoyl)-4-methoxybenzoic acid]
< 0.5 | CCc1ccc(C(=O)O)cc1S(=O)(=O)Nc1cc(-c2ncco2)ccc1N1CCCCC1 [Example 289, 4-ethyl-3-(N-(5-(oxazol-2-yl)-2-(piperidin-1-yl)phenyl)sulfamoyl)benzoic acid]
< 0.5 | CCc1ccc(C(=O)O)cc1S(=O)(=O)Nc1cc(C(F)(F)F)ccc1N1CCC[C@H](F)C1 [Example 210, (S)-4-ethyl-3-(N-(2-(3-fluoropiperidin-1-yl)-5-(trifluoromethyl)phenyl)sulfamoyl)benzoic acid]
< 5 | COc1ccc(C(=O)O)cc1S(=O)(=O)Nc1cc(C(F)(F)F)ccc1N1CCN2CCC[C@@H]2C1 [Example 40, (R)-3-(N-(2-(hexahydropyrrolo[1,2-a]pyrazin-2(1H)-yl)-5-(trifluoromethyl)phenyl)sulfamoyl)-4-methoxybenzoic acid]
< 0.5 | CCc1ccc(C(=O)O)cc1S(=O)(=O)Nc1cc(C#N)ccc1N1CCCC(O)C1 (centres unmarked) [Example 224, 3-(N-(5-cyano-2-(3-hydroxypiperidin-1-yl)phenyl)sulfamoyl)-4-ethylbenzoic acid]
< 0.5 | N#Cc1ccc(N2CCC(C#N)CC2)c(NS(=O)(=O)c2cc(C(=O)O)ccc2C2CC2)c1 [Example 326, 3-(N-(5-cyano-2-(4-cyanopiperidin-1-yl)phenyl)sulfamoyl)-4-cyclopropylbenzoic acid]
< 0.5 | CCc1ccc(C(=O)O)cc1S(=O)(=O)Nc1cc(Cl)ccc1N1CCCC(F)(F)C1 [Example 220, 3-(N-(5-chloro-2-(3,3-difluoropiperidin-1-yl)phenyl)sulfamoyl)-4-ethylbenzoic acid]
< 0.5 | CCc1ccc(C(=O)O)cc1S(=O)(=O)Nc1cc(-c2cncn2C)ccc1N1CCCCC1 [Example 287, 4-ethyl-3-(N-(5-(1-methylimidazol-5-yl)-2-(piperidin-1-yl)phenyl)sulfamoyl)benzoic acid]
< 0.5 | COc1ccc(C(=O)O)cc1S(=O)(=O)Nc1cc(C(F)(F)F)ccc1N1CC2CCC(C1)C2O (centres unmarked) [Example 13, 3-(N-(2-(8-hydroxy-3-azabicyclo[3.2.1]octan-3-yl)-5-(trifluoromethyl)phenyl)sulfamoyl)-4-methoxybenzoic acid]
< 5 | O=C(O)c1ccc(OCC(F)(F)F)c(S(=O)(=O)Nc2cc(C(F)(F)F)ccc2N2CCCCC2)c1 [Example 227, 3-(N-(2-(piperidin-1-yl)-5-(trifluoromethyl)phenyl)sulfamoyl)-4-(2,2,2-trifluoroethoxy)benzoic acid]
< 0.5 | CCc1ccc(C(=O)O)cc1S(=O)(=O)Nc1cc(-n2cnnn2)ccc1N1CC(O)C1 [Example 283, 4-ethyl-3-(N-(2-(3-hydroxyazetidin-1-yl)-5-(tetrazol-1-yl)phenyl)sulfamoyl)benzoic acid]

IC50 [µM] | SMILES
< 0.5 | CCc1ccc(C(=O)O)cc1S(=O)(=O)Nc1cc(C(F)(F)F)ccc1N1CCC(F)(F)CC1 [Example 203, 3-(N-(2-(4,4-difluoropiperidin-1-yl)-5-(trifluoromethyl)phenyl)sulfamoyl)-4-ethylbenzoic acid]
< 0.5 | CCC1(O)CCN(c2ccc(C(F)(F)F)cc2NS(=O)(=O)c2cc(C(=O)O)ccc2OC)CC1 [Example 15, 3-(N-(2-(4-ethyl-4-hydroxypiperidin-1-yl)-5-(trifluoromethyl)phenyl)sulfamoyl)-4-methoxybenzoic acid]
< 0.5 | COc1ccc(C(=O)O)cc1S(=O)(=O)Nc1cc(C(F)(F)F)ccc1N1CCCCC1(C)C [Example 31, 3-(N-(2-(2,2-dimethylpiperidin-1-yl)-5-(trifluoromethyl)phenyl)sulfamoyl)-4-methoxybenzoic acid]
< 0.5 | CCc1ccc(C(=O)O)cc1S(=O)(=O)Nc1cc(S(C)(=O)=O)ccc1N1CCCC(F)(F)C1 [Example 313, 3-(N-(2-(3,3-difluoropiperidin-1-yl)-5-(methylsulfonyl)phenyl)sulfamoyl)-4-ethylbenzoic acid]
> 5 | COc1ccc(C(=O)O)cc1S(=O)(=O)Nc1cc(C(F)(F)F)ccc1N1CCN(C(C)=O)CC1 [Example 34, 3-(N-(2-(4-acetylpiperazin-1-yl)-5-(trifluoromethyl)phenyl)sulfamoyl)-4-methoxybenzoic acid]
< 0.5 | CCc1ccc(C(=O)O)cc1S(=O)(=O)Nc1cc(C#N)ccc1N1CCC[C@@H](F)C1 [Example 311, I-3-(N-(5-cyano-2-(3-fluoropiperidin-1-yl)phenyl)sulfamoyl)-4-ethylbenzoic]
< 0.5 | O=C(O)c1ccc(CO)c(S(=O)(=O)Nc2cc(C(F)(F)F)ccc2N2CCCCC2)c1 [Example 229, 4-(hydroxymethyl)-3-(N-(2-(piperidin-1-yl)-5-(trifluoromethyl)phenyl)sulfamoyl)benzoic acid]
< 0.5 | COc1ccc(C(=O)O)cc1S(=O)(=O)Nc1cc(C(F)(F)F)ccc1N1CCCCCC1 [Example 68, 3-(N-(2-(azepan-1-yl)-5-(trifluoromethyl)phenyl)sulfamoyl)-4-methoxybenzoic acid]
< 0.5 | COc1ccc(C(=O)O)cc1S(=O)(=O)Nc1cc(C(F)(F)F)ccc1N1CCC[C@@H](F)C1 [Example 208, I-3-(N-(2-(3-fluoropiperidin-1-yl)-5-(trifluoromethyl)phenyl)sulfamoyl)-4-methoxybenzoic acid]
< 0.5 | O=C(O)c1ccc(OC(F)(F)F)c(S(=O)(=O)Nc2cc(C(F)(F)F)ccc2N2CCCCC2)c1 [Example 4, 3-(N-(2-(piperidin-1-yl)-5-(trifluoromethyl)phenyl)sulfamoyl)-4-(trifluoromethoxy)benzoic acid]
< 0.5 | Cc1ccc(C(=O)O)cc1S(=O)(=O)Nc1cc(C(F)(F)F)ccc1N1CCCCCC1 [Example 62, 3-(N-(2-(azepan-1-yl)-5-(trifluoromethyl)phenyl)sulfamoyl)-4-methylbenzoic acid]
< 5 | COc1ccc(C(=O)O)cc1S(=O)(=O)Nc1cc(C(F)(F)F)ccc1N1CCC(OC(C)C)CC1 [Example 187, 3-(N-(2-(4-isopropoxypiperidin-1-yl)-5-(trifluoromethyl)phenyl)sulfamoyl)-4-methoxybenzoic acid]
> 5 | CCc1ccc(C(=O)O)cc1S(=O)(=O)Nc1cc(C(F)(F)F)ccc1N1CC(O)C1 [Example 183, 4-ethyl-3-(N-(2-(3-hydroxyazetidin-1-yl)-5-(trifluoromethyl)phenyl)sulfamoyl)benzoic acid]
< 0.5 | CCc1ccc(C(=O)O)cc1S(=O)(=O)Nc1cc(C#N)ccc1N1CCC[C@H](O)C1 [Example 263, (S)-3-(N-(5-cyano-2-(3-hydroxypiperidin-1-yl)phenyl)sulfamoyl)-4-ethylbenzoic acid]
< 0.5 | N#Cc1ccc(N2CCCC(F)(F)C2)c(NS(=O)(=O)c2cc(C(=O)O)ccc2C2CC2)c1 [Example 316, 3-(N-(5-cyano-2-(3,3-difluoropiperidin-1-yl)phenyl)sulfamoyl)-4-cyclopropylbenzoic acid]
< 0.5 | CCc1ccc(C(=O)O)cc1S(=O)(=O)Nc1cc(S(C)(=O)=O)ccc1N1CCC[C@H](O)C1 [Example 247, (S)-4-ethyl-3-(N-(2-(3-hydroxypiperidin-1-yl)-5-(methylsulfonyl)phenyl)sulfamoyl)benzoic acid]
< 0.5 | COc1ccc(C(=O)O)cc1S(=O)(=O)Nc1cc(-n2cnnn2)ccc1N1CCCCC1 [Example 214, 4-methoxy-3-(N-(2-(piperidin-1-yl)-5-(1H-tetrazol-1-yl)phenyl)sulfamoyl)benzoic acid]
